Measured values as given in patent publication US10683553B2, “Method for determining sensitivity to simultaneous inhibitor against PARP and Tankyrase” (THE ASAN FOUNDATION, priority 2015, dated 2020).

What was measured:
Format in all cases: cell-based
[1] = system: HCT8 human colon cancer cell line; experiment: Trypan blue apoptosis with overexpressed mutant LIG4 (G833A or T1704C); conditions: HCT8 overexpressing LIG4 mutant G833A or T1704C vs control group (empty); 25 μM and 50 μM, 48 hours
Excerpt: In order to analyze the degree of apoptosis of Compound A, which is a novel PARP/Tankyrase simultaneous inhibitor, when the p53 genotype is a normal type and an LIG4 genotype is a mutant type, the present inventors treated a novel PARP/Tankyrase simultaneous inhibitor, Compound A, and the competitive drug PARP inhibitor, olaparib, while overexpressing an LIG4 mutant type in the HCT8 human colon cancer cell line in which the p53 gene is a normal type and an LIG4 genotype is a normal type. Then, the number of cells was measured by trypan blue staining assay to confirm the degree of apoptosis. […] After 48 hours of culturing, the number of cells was measured by trypan blue staining and the degree of apoptosis was confirmed.
The present inventors conducted an experiment in the same manner as Example 9 to analyze the degree of apoptosis and DNA damage of Compound A, which is a novel PARP/Tankyrase simultaneous inhibitor, when the p53 genotype is a mutant type and an LIG4 genotype is a mutant type. The number of cells was measured by trypan blue staining method and the degree of apoptosis was confirmed. […] It was washed with TBS-T buffer three times for 15 minutes to induce luminescence of PDVF membrane using ECL buffer solution to develop protein expression on each anti-body using an X-ray film.

[2] = system: HT-29 colon cancer cell line; experiment: MTS cell viability / IC50; conditions: Homo sapiens
Procedure: (§1) The present inventors conducted an in vitro cell base assay to analyze the anticancer activity of Compound A, which is a novel PARP/Tankyrase simultaneous inhibitor, in 18 human colon cancer cell lines (Korean Cell Line Bank and ATCC purchased), and the cell viability and IC50 of the cell lines for Compound A, the novel PARP/Tankyrase simultaneous inhibitor, were measured.
(§2) As the experimental conditions and methods, a total of 18 human colon cancer cell lines were cultured in RPMI1640 (Roswell Park Memorial Institute 1640; 10% FBS, 1% penicillin/streptomycin), and each cell line was cultured in 96 well plate for 2×10^3 per well at 37° C. for 24 hours and the novel PARP/Tankyrase simultaneous inhibitor, Compound A, was diluted by a multiple of 2 at a maximum of 100 μM and a minimum of 0.390625 μM (100 μM, 50 μM, 25 μM, 12.5 μM, 6.25 μM, 3.125 μM, 1.5625 μM, 0.78125 μM and 0.390625 μM). After the treatment, it was cultured at 37° C. for 72 hours. As for the drug treatment group and non-treatment group, the cell viability of each cell line was measured by MTS analysis (Promega, CellTiter 96 AQeous One Solution) and the IC50 of each cell line was measured using the PRISM program.
(§3) The present inventors analyzed the correlation of 18 human colon cancer cell lines, an anti-cancer effect of Compound A which is a novel PARP/Tankyrase simultaneous inhibitor and the genotype of the p53 gene through an in vitro cell base assay in the same experimental method as Example 1 in 18 human colon cancer cell lines.

[3] = system: Caco-2 colon cancer cell line; experiment: MTS cell viability / IC50; conditions: Homo sapiens
Procedure: as §1, §2, §3

[4] = system: SW1417 colon cancer cell line; experiment: MTS cell viability / IC50; conditions: Homo sapiens
Procedure: as §1, §2, §3

[5] = system: Ls174T colon cancer cell line; experiment: MTS cell viability / IC50; conditions: Homo sapiens
Procedure: as §1, §2, §3

[6] = system: DLD-1 colon cancer cell line; experiment: MTS cell viability / IC50; conditions: Homo sapiens
Procedure: as §1, §2, §3

[7] = system: SW480 colon cancer cell line; experiment: MTS cell viability / IC50; conditions: Homo sapiens
Procedure: as §1, §2, §3

[8] = system: HCT-15 colon cancer cell line; experiment: MTS cell viability / IC50; conditions: Homo sapiens
Procedure: as §1, §2, §3

[9] = system: Ls1034 colon cancer cell line; experiment: MTS cell viability / IC50; conditions: Homo sapiens, LS-1034
Procedure: as §1, §2, §3

[10] = system: Colo320HSR colon cancer cell line; experiment: MTS cell viability / IC50; conditions: Homo sapiens, COLO-320-HSR
Procedure: as §1, §2, §3

[11] = system: LoVo colon cancer cell line; experiment: MTS cell viability / IC50; conditions: Homo sapiens
Procedure: as §1, §2, §3

[12] = system: Colo201 colon cancer cell line; experiment: MTS cell viability / IC50; conditions: Homo sapiens, COLO 201
Procedure: as §1, §2, §3

[13] = system: Colo205 colon cancer cell line; experiment: MTS cell viability / IC50; conditions: Homo sapiens, COLO 205
Procedure: as §1, §2, §3

[14] = system: SW48 colon cancer cell line; experiment: MTS cell viability / IC50; conditions: Homo sapiens
Procedure: as §1, §2, §3

For `CCOc1cc(CN(C)C)cc2[nH]c(=O)c3c(c12)NCCC3` [Compound A, 8-[(dimethylamino)methyl]-10-ethoxy-1,2,3,4-tetrahydrobenzo[h][1,6]naphthyridin-5(6H)-one], the “degree of apoptosis (trypan blue cell count)” value [1] was “apoptosis was increased”, the IC50 ([2]; HT29, p53 Mutant type cell line) was 32.2 µM and the IC50 ([2]; MTS, 72 hours) was 32.2 µM. It also gave an IC50 ([3]; Caco-2, p53 Mutant type cell line) of 19.2 µM, an IC50 ([3]; Caco-2, MTS, 72 hours) of 19.2 µM and an IC50 ([4]; SW1417, p53 Mutant type cell line) greater than 100 µM. For the same compound, the IC50 ([4]; SW1417, MTS, 72 hours) was greater than 100 µM, the IC50 ([5]; LS174T, p53 Wild-type cell line) was 12.2 µM and the IC50 ([5]; Ls174T, MTS, 72 hours) was 12.2 µM. The IC50 ([6]; DLD-1, p53 Mutant type cell line) was 85.6 µM, the IC50 ([6]; DLD-1, MTS, 72 hours) was 85.6 µM and the IC50 ([7]; SW480, p53 Mutant type cell line) was greater than 100 µM. It also gave an IC50 ([7]; SW480, MTS, 72 hours) greater than 100 µM, an IC50 ([8]; HCT-15, p53 Mutant type cell line) greater than 100 µM and an IC50 ([8]; HCT-15, MTS, 72 hours) greater than 100 µM. The IC50 ([9]; LS1034, p53 Mutant type cell line) was greater than 100 µM, the IC50 ([9]; Ls1034, MTS, 72 hours) was greater than 100 µM and the IC50 ([10]; Colo320, MTS, 72 hours) was 8.27 µM. It also gave an IC50 ([10]; Colo320HSR, p53 Mutant type cell line) of 8.27 µM, an IC50 ([11]; MTS, 72 hours) of 18.6 µM and an IC50 ([11]; p53 Wild-type cell line) of 18.6 µM. For the same compound, the IC50 ([12]; Colo201, p53 Mutant type cell line) was 28.4 µM, the IC50 ([12]; Colo201, MTS, 72 hours) was 28.4 µM and the IC50 ([13]; Colo205, p53 Mutant type cell line) was 24.4 µM. It also gave an IC50 ([13]; Colo205, MTS, 72 hours) of 24.4 µM, an IC50 ([14]; SW48, p53 Wild-type cell line) greater than 100 µM and an IC50 ([14]; SW48, MTS, 72 hours) greater than 100 µM.
